Measurements published in patent US7576204B2, “Heterocyclic macrolide pharmaceutical agent, a method of producing the same and use of the same” (priority 2002, dated 2009).

Experiments:
VEGF promoter = test: VEGF transcription inhibitory activity, VEGF-PLAP reporter in U251/1-8 cells under hypoxic conditions; assay type: cell-based; conditions: Homo sapiens, U-251, hypoxic (2% O2) incubator 18 hours, PLAP activity in culture supernatant
From the text: In order to prepare a reporter system in which transcription from a VEGF promoter is reflected, a VEGF promoter sequence was cloned and inserted into a placental alkaline phosphatase (PLAP) vector to construct a reporter vector.
In order to obtain a promoter region of human VEGF, a VEGF genome was cloned from a phage library. Based on VEGF cDNA (GenBank accession number: X62568), a PCR primer with the sequence described as SEQ ID NO: 1 or SEQ ID NO: 2 was designed and used for conducting PCR, thereby obtaining a fragment of about 340 bp. A human genomic phage library (human genomic library, Clontech) was screened using this fragment as a probe to obtain pUC18-VEGFA containing a VEGF 5′-flanking region of about 5.4 kb. This pUC18-VEGFA was cut with Kpn I/Nhe I to obtain a VEGF promoter region of about 2.3 kb, and the region was inserted into the multicloning site Kpn I/Nhe I of the placental alkaline phosphatase (PLAP) reporter vector (Goto et al., Mol. Pharmacol., 49, 860-873, 1996) to construct a VEGF-PLAP vector.
The above-described VEGF-PLAP vector was introduced into U251 cells cultured in a Dulbecco's modified Eagle's medium containing 10% fetal bovine serum (DMEM, manufactured by Sigma Co.), and cultured in the presence of 1 mg/ml G418 (Merck & Co., Inc.) to establish a G418-resistant stable clone (U251/1-8 cells).
As in a report by Minchenko et al. (Cell. Mol. Biol. Res., 40, 35-39, 1994), U251/1-8 cells were confirmed to be a reporter system which secretes PLAP into a culture medium under hypoxic conditions (2% O2 incubator), and in which transcription from a VEGF promoter is reflected. […]
The cells were cultured in a CO2 incubator (5% CO2) at 37° C. overnight, and 20 μl of the above-described culture solution containing the test compound at threefold serial dilutions was added. […] After the reaction for one hour, chemiluminescence was detected using a microplate reader (PerkinElmer) to measure the PLAP activity as the alkaline phosphatase activity. […] The IC50 values of compounds of the formula (I) were determined.

[1] = system: WiDr human colon cancer cells; test: Action of inhibiting proliferation of WiDr human colon cancer cells (MTT); assay type: cell-based; conditions: 72 h, three days culture, read-out: WiDr human colon cancer cell proliferation inhibitory activity (IC50: nM)
Protocol: 2×10^3 cells/well of WiDr human colon cancer cells cultured in a Dulbecco's modified Eagle's medium containing 10% fetal bovine serum, penicillin (100 units/mL) and streptomycin (100 μg/mL) (DMEM, manufactured by Sigma Co.) were plated in a 96-well plate. The cells were cultured in a CO2 incubator overnight, and 20 μL of the above-described culture solution containing the test compound at threefold serial dilutions was added for culturing the cells. After three days, 50 μL of a 3.3 mg/mL MTT solution was added, and the cells were further cultured for one hour. Then, formazan generated by reduction by living cells was extracted with 100 μL of DMSO to measure the absorbance (A540/A660), which was used as an index of the number of living cells.
The concentration for inhibiting 50% of proliferation of WiDr human colon cancer cells (IC50 value) of the compound of the formula (I) was determined.

[2] = Stability in an aqueous solution
[3] = system: P388 mouse leukemia cells; conditions: in vivo experiment using P388 mouse leukemia cells; cited from earlier work
[4] = system: HL-60 human leukemia cells; conditions: RPM-1640 culture medium; cited from earlier work
[5] = system: P388 mouse leukemia cells; conditions: RPM-1640 culture medium; cited from earlier work
[6] = system: L-1210 mouse leukemia cells; conditions: RPM-1640 culture medium; cited from earlier work

Structure (SMILES) | IC50 (VEGF promoter) | IC50 [1] | Stability in an aqueous solution [2] | Antitumor activity in vivo [3] | Cytotoxic activity in vitro [4] | Cytotoxic activity in vitro [5] | Cytotoxic activity in vitro [6]
CCC(OC(=O)c1ccccc1)C(C)C1OC1CC(C)/C=C/C=C(\C)C1OC(=O)CC(O)CCC(C)(O)C(OC(=O)N2CCN(C)CC2)/C=C/C1C (centres unmarked) [Example 1, (8E,12E,14E)-21-benzoyloxy-3,6-dihydroxy-6,10,12,16,20-pentamethyl-7-((4-methylpiperazin-1-yl)carbonyl)oxy-18,19-epoxytricosa-8,12,14-trien-11-olide] | 20.7 nM | 5.9 nM |  |  |  |  | 
CCC(OC(=O)Nc1ccccc1)C(C)C1OC1CC(C)/C=C/C=C(\C)C1OC(=O)CC(O)CCC(C)(O)C(OC(=O)N2CCN(C)CC2)/C=C/C1C (centres unmarked) [Example 3, (8E,12E,14E)-3,6-dihydroxy-6,10,12,16,20-pentamethyl-7-((4-methylpiperazin-1-yl)carbonyl)oxy-21-(N-phenylcarbamoyloxy)-18,19-epoxytricosa-8,12,14-trien-11-olide] | 11.8 nM | 4.8 nM |  |  |  |  | 
CCC(OC(=O)N(C)C)C(C)C1OC1CC(C)/C=C/C=C(\C)C1OC(=O)CC(O)CCC(C)(O)C(OC(=O)N2CCN(C)CC2)/C=C/C1C (centres unmarked) [Example 2, (8E,12E,14E)-21-(N,N-dimethylcarbamoyloxy)-3,6-dihydroxy-6,10,12,16,20-pentamethyl-7-((4-methylpiperazin-1-yl)carbonyl)oxy-18,19-epoxytricosa-8,12,14-trien-11-olide] | 4.2 nM | 2.4 nM |  |  |  |  | 
CCC(OC)C(C)C1OC1C(O)C(C)/C=C/C=C(\C)C1OC(=O)CC(O)CCC(C)(O)C(OC(C)=O)/C=C/C1C (centres unmarked) [FD-895] |  |  | instable in an aqueous solution | did not show antitumor activity | has cytotoxic activity in vitro | has cytotoxic activity in vitro | has cytotoxic activity in vitro
